In US11298363B2, “Triazolobenzazepines as vasopressin V1a receptor antagonists” (RICHTER GEDEON NYRT., priority 2017, dated 2022):
Where a name gives a salt, the structure may show the parent alone.

Experiments:
[1] = molecular target: T1, human vasopressin V1a receptor (Homo sapiens, UniProt P37288); assay: Functional assay on human vasopressin V1a receptor expressing cell line (intracellular Ca2+ fluorescence); type: cell-based; settings: 1321N1 cells, (Arg8)-vasopressin at EC80; read-out: IC50 (nM) on hV1a cell line
T1 sequence (P37288 whole entry): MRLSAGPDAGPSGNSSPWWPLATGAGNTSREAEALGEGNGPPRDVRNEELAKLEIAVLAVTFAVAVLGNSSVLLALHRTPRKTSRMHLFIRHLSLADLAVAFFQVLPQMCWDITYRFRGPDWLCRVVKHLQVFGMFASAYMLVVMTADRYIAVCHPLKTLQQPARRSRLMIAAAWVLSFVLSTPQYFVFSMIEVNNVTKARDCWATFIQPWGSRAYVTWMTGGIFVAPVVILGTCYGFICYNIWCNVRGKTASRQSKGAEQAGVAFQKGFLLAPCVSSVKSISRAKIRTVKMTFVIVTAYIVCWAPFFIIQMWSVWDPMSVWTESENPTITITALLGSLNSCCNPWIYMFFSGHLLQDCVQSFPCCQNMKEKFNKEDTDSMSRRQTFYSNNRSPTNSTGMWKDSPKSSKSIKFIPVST
Description: Functional Assay to Test Compounds on Human Vasopressin V1a Receptor Expressing Cell Line
The ordinary secondary messenger pathway of the measured GPCR receptor was used, the endogenous Gq-associated system.
Using 30,000 cells/plate, compounds were measured on 96-well plates. The buffer composition of the measurements was the following (expressed in mM): 140 NaCl, 5 KCl, 2 CaCl2), 2 MgCl2, 10 glucose, 10 HEPES (4-(2-hydroxyethyl)-1-piperazine-ethanesulfonic acid), 2 probenecid, pH=7.4. FLIPR Calcium 5 kit (Molecular Devices) was used as fluorescent dye, the medium was not removed prior to filling with the dye and the cells were not washed out either before or after. The incubation was performed at room temperature, the final concentration of DMSO was 1%. The materials to be measured were administered in 15 to 20 minutes pretreatment, at least two parallels of each compound in each concentration was measured.
Fluorescence signal was used to determine the intracellular Ca^2+ level, the reader was FlexStation II96. […] The fluorescence signal was logged in every 1.4 seconds for 1 minute. The reference compounds used were the following: (Arg^8)-vasopressin as agonist at concentration of EC80, determined for each plate, and relcovaptan as antagonist at 1 μM. The % of inhibition at each concentration and the IC50 value of the compounds were determined where a concentration line was also measured.
The total AVP concentration-response curve was recorded on each plate. The effect of compounds measured was expressed by percentage of relative inhibition compared to control response. […] The average IC50 values were calculated from at least three independent measurements in all cases.

[2] = molecular target: T1, human vasopressin V1a receptor; assay: Human vasopressin V1a receptor binding assay; settings: for Ki: 1321N1 cell membranes, [3H]vasopressin, read-out: Ki (nM) on hV1a cell line
Description: Human Vasopressin V1a Receptor Binding Assay
Cells were suspended in preparative buffer (50 mM Tris, 1 mM EDTA, 0.1 mM PMSF) and homogenized with glass homogenizing potter. To separate the raw membrane fraction two consecutive centrifugation procedures (40,000 g for 20 minutes at 4° C.) were executed, then the membrane was taken into the preparatory buffer during a final washing step, it was divided into aliquots which were stored at −80° C. until the time of measurement.
To determine the final affinity value, the results of at least two independent experiments were taken into account.
Non-specific binding values were determined in the presence of unlabeled 1.2×10^−6 M (Arg^8)-vasopressin. Samples were incubated in a total volume of 0.33 ml for 60 minutes at 27° C. Membrane-bound and free ligands were separated by filtration through a 0.5% polyethyleneimine-impregnated UniFilter® GF/B™. After drying the filter plates, 40 μl Microscint-20 (Packard) scintillation cocktail was added to the samples. Finally, radioactivity was measured using MicroBeta^2 Microplate Counter (Perkin Elmer).
During fitting, the asymptotes are not fixed. The K values (inhibition constant) are given with Cheng-Prusoff equation Ki=IC50/[1+(L/KD)] wherein [L] is the radioligand concentration used in the experiment and [KD] is the affinity of the radioactively labelled ligand for the given receptor. The KD is determined beforehand using the Scatchard curve.

Structure (SMILES) | IC50 [1] [nM] | Ki [2] [nM] | % at 1 μM, printed in the column Ki (nM) on hV1a cell line ([2]; at 1 μM) [% at 1 μM]
CO[C@@H]1Cc2cc(Cl)ccc2-n2c(nnc2[C@H]2CC[C@H](C(F)(F)F)CC2)C1 (single isomer, unassigned) [Example 132] | 2.5 | 0.3 | 
NC1Cc2cc(Cl)ccc2-n2c(nnc2C2CCN(c3ccccn3)CC2)C1 (stereo not drawn) [Example 2, 8-chloro-1-[1-(pyridin-2-yl)piperidin-4-yl]-5,6-dihydro-4H-[1,2,4]triazolo[4,3-a][1]benzazepine-5-amine] | 170 | 7 | 
CC(=O)NC1Cc2cc(Cl)ccc2-n2c(nnc2C2CCN(c3ccccn3)CC2)C1 (stereo not drawn) [Example 3, N-[8-chloro-[1-(pyridin-2-yl)piperidin-4-yl]-5,6-dihydro-4H-[1,2,4]triazolo[4,3-a][1]benzazepin-5-yl]acetamide] | 16 | 2.1 | 
CC(C)C(=O)NC1Cc2cc(Cl)ccc2-n2c(nnc2C2CCN(c3ccccn3)CC2)C1 (stereo not drawn) [Example 4] | 825 | 70 | 
N[C@H]1Cc2cc(Cl)ccc2-n2c(nnc2[C@H]2CC[C@H](Oc3ccccn3)CC2)C1 [Example 7, (5S)-8-chloro-1[trans-4-(pyridin-2-yloxy)cyclohexyl]-5,6-dihydro-4H-[1,2,4]triazolo[4,3-a][1]benzazepine-5-amine] | 20 | 2.1 | 
NCC(=O)NC1Cc2cc(Cl)ccc2-n2c(nnc2[C@H]2CC[C@H](Oc3ccccn3)CC2)C1 (stereo partly drawn) [Example 10, N-{8-chloro-1-[trans-4-(pyridin-2-yloxy)cyclohexyl]-5,6-dihydro-4H-[1,2,4]triazolo[4,3-a][1]benzazepin-5-yl}glycinamide] | 12 | 1.8 | 
N[C@H](C(=O)N[C@@H]1Cc2cc(Cl)ccc2-n2c(nnc2[C@H]2CC[C@H](Oc3ccccn3)CC2)C1)c1ccccc1 [Example 13, (2S)-2-amino-N-{(5R)-8-chloro-1-[trans-4-(pyridin-2-yloxy)cyclohexyl]-5,6-dihydro-4H-[1,2,4]triazolo[4,3-a][1]benzazepin-5-yl}-2-phenylacetamide] | 45 | 5 | 
O=C(CO)NC1Cc2cc(Cl)ccc2-n2c(nnc2[C@H]2CC[C@H](Oc3ccccn3)CC2)C1 (stereo partly drawn) [Example 15, N-{8-chloro-1-[trans-4-(pyridin-2-yloxy)cyclohexyl]-5,6-dihydro-4H-[1,2,4]triazolo[4,3-a][1]benzazepin-5-yl}-2-hydroxyacetamide] | 3.7 | 0.4 | 
CN(C)C(=O)NC1Cc2cc(Cl)ccc2-n2c(nnc2[C@H]2CC[C@H](Oc3ccccn3)CC2)C1 (stereo partly drawn) [Example 16, 3-{8-chloro-1-[trans-4-(pyridin-2-yloxy)cyclohexyl]-5,6-dihydro-4H-[1,2,4]triazolo[4,3-a][1]benzazepin-5-yl}-1,1-dimethylurea] | 10 | 3 | 
CN(C)CC(=O)NC1Cc2cc(Cl)ccc2-n2c(nnc2[C@H]2CC[C@H](Oc3ccccn3)CC2)C1 (stereo partly drawn) [Example 17, N-{8-chloro-1-[trans-4-(pyridin-2-yloxy)cyclohexyl]-5,6-dihydro-4H-[1,2,4]triazolo[4,3-a][1]benzazepin-5-yl}-N^2,N^2-dimethylglycinamide] | 35 | 2.1 | 
Clc1ccc2c(c1)CC(NC1CCC1)Cc1nnc([C@H]3CC[C@H](Oc4ccccn4)CC3)n1-2 (stereo partly drawn) [Example 27, 8-chloro-N-cyclobutyl-1-[trans-4-(pyridin-2-yloxy)cyclohexyl]-5,6-dihydro-4H-[1,2,4]triazolo[4,3-a][1]benzazepine-5-amine] | 7 | 1.1 | 
Clc1ccc2c(c1)CC(NC1COC1)Cc1nnc([C@H]3CC[C@H](Oc4ccccn4)CC3)n1-2 (stereo partly drawn) [Example 28, 8-chloro-N-(oxetan-3-yl)-1[trans-4-(pyridin-2-yloxy)cyclohexyl]-5,6-dihydro-4H-[1,2,4]triazolo[4,3-a][1]benzazepine-5-amine] | 5.4 | 0.7 | 
FC1(F)CCC(NC2Cc3cc(Cl)ccc3-n3c(nnc3[C@H]3CC[C@H](Oc4ccccn4)CC3)C2)CC1 (stereo partly drawn) [Example 30, 8-chloro-N-(4,4-difluorocyclohexyl)-1-[trans-4-(pyridin-2-yloxy)cyclohexyl]-5,6-dihydro-4H-[1,2,4]triazolo[4,3-a][1]benzazepine-5-amine] | 15 | 1.4 | 
COc1ccc2c(c1)CC(N)Cc1nnc([C@H]3CC[C@H](Oc4ccccn4)CC3)n1-2 (stereo partly drawn) [Example 31, 8-methoxy-1-[trans-4-(pyridin-2-yloxy)cyclohexyl]-5,6-dihydro-4H-[1,2,4]triazolo[4,3-a][1]benzazepine-5-amine hydrochloride] | 260 | 17 | 
COc1ccc2c(c1)CC(NC(C)C)Cc1nnc([C@H]3CC[C@H](Oc4ccccn4)CC3)n1-2 (stereo partly drawn) [Example 32, 8-methoxy-N-(propan-2-yl)-1-[trans-4-(pyridin-2-yloxy)cyclohexyl]-5,6-dihydro-4H-[1,2,4]triazolo[4,3-a][1]benzazepine-5-amine] | 85 | 6 | 
CC(C)NC1Cc2cc(Cl)ccc2-n2c(nnc2C2CCC(F)(F)CC2)C1 (stereo not drawn) [Example 42, 8-chloro-1-(4,4-difluorocyclohexyl)-N-(propan-2-yl)-5,6-dihydro-4H-[1,2,4]triazolo[4,3-a][1]benzazepine-5-amine] |  |  | 42

Next, values leading:

IC50 [1] [nM] | Ki [2] [nM] | % at 1 μM, printed in the column Ki (nM) on hV1a cell line ([2]; at 1 μM) [% at 1 μM] | Structure (SMILES)
210 | 10.1 |  | COC1(C)CCC(c2nnc3n2-c2ccc(Cl)cc2CC(NC(C)C)C3)CC1 (mixture of isomers) [Example 203, 8-chloro-1-(4-methoxy-4-methylcyclohexyl)-N-(propan-2-yl)-5,6-dihydro-4H-[1,2,4]triazolo[4,3-a][1]benzazepin-5-amine]
6.5 | 0.4 |  | CO[C@H]1Cc2cc(Cl)ccc2-n2c(nnc2[C@H]2CC[C@H](C(F)(F)F)CC2)C1 (single isomer, unassigned) [Example 133]
1.1 | 0.4 |  | CO[C@@H]1Cc2cc(F)ccc2-n2c(nnc2[C@H]2CC[C@H](Oc3ccccn3)CC2)C1 (single isomer, unassigned) [Example 176]
0.9 | 0.3 |  | CO[C@H]1Cc2cc(F)ccc2-n2c(nnc2[C@H]2CC[C@H](Oc3ccccn3)CC2)C1 (single isomer, unassigned) [Example 177]
17 | 3.8 |  | CC(C)(C)OC(=O)NC1Cc2cc(Cl)ccc2-n2c(nnc2[C@H]2CC[C@H](Oc3ccccn3)CC2)C1 (stereo partly drawn) [Example 5, Tert-butyl {8-chloro-1-[trans-4-(pyridin-2-yloxy)cyclohexyl]-5,6-dihydro-4H-[1,2,4]triazolo[4,3-a][1]benzazepine-5-yl}carbamate]
480 | 32 |  | NCC(=O)N[C@H]1Cc2cc(Cl)ccc2-n2c(nnc2[C@H]2CC[C@H](Oc3ccccn3)CC2)C1 [Example 11, N-{(5S)-8-chloro-1-[trans-4-(pyridin-2-yloxy)cyclohexyl]-5,6-dihydro-4H-[1,2,4]triazolo[4,3-a][1]benzazepin-5-yl}glycinamide]
10 | 1.1 |  | N[C@@H](C(=O)N[C@@H]1Cc2cc(Cl)ccc2-n2c(nnc2[C@H]2CC[C@H](Oc3ccccn3)CC2)C1)c1ccccc1 [Example 14, (2R)-2-amino-N-{(5R)-8-chloro-1-[trans-4-(pyridin-2-yloxy)cyclohexyl]-5,6-dihydro-4H-[1,2,4]triazolo[4,3-a][1]benzazepin-5-yl}-2-phenylacetamide]
2.8 | 0.5 |  | CN(C)C1Cc2cc(Cl)ccc2-n2c(nnc2[C@H]2CC[C@H](Oc3ccccn3)CC2)C1 (stereo partly drawn) [Example 22, 8-chloro-N,N-dimethyl-1-[trans-4-(pyridin-2-yloxy)cyclohexyl]-5,6-dihydro-4H-[1,2,4]triazolo[4,3-a][1]benzazepine-5-amine]
 | 600 |  | CC(C)NC1Cc2cc(Cl)ccc2-n2c(nnc2C2CC(F)(F)C2)C1 (stereo not drawn) [Example 41, 8-chloro-1-(3,3-difluorocyclobutyl)-N-(propan-2-yl)-5,6-dihydro-4H-[1,2,4]triazolo[4,3-a][1]benzazepine-5-amine]
